Data from article PMC9392260 (Journal of Inflammation Research, 2022).
Read-outs that look alike come from different tables or passages of the source.

Assays:
Format in all cases: biochemical
[1] = biological target: ACE2 (Homo sapiens, UniProt Q9BYF1); experiment: fluorescent ACE2 inhibitor screening kit
[2] = biological target: T1, COX-2 (Homo sapiens, UniProt P35354); experiment: fluorescent COX-2 inhibitor screening kit
T1 sequence (P35354 18-604): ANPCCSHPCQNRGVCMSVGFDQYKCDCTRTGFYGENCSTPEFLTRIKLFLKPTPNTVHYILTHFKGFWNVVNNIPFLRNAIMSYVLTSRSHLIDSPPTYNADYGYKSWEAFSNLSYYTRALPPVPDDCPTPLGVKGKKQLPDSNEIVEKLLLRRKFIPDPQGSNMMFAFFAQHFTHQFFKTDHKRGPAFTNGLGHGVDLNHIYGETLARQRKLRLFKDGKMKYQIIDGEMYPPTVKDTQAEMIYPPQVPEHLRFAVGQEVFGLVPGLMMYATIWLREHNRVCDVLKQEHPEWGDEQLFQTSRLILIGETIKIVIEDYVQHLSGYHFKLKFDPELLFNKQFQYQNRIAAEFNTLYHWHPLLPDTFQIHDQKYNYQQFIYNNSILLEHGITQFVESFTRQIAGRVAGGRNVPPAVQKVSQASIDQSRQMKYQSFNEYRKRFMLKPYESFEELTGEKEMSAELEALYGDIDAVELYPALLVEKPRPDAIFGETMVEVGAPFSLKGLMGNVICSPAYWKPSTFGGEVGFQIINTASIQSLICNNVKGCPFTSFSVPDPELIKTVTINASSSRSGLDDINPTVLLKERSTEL

[3] = biological target: T1, COX-2; experiment: fluorescent COX-2 inhibitor screening kit; remark: listed apart in the source

Sequence of ACE2 (Q9BYF1 18-805): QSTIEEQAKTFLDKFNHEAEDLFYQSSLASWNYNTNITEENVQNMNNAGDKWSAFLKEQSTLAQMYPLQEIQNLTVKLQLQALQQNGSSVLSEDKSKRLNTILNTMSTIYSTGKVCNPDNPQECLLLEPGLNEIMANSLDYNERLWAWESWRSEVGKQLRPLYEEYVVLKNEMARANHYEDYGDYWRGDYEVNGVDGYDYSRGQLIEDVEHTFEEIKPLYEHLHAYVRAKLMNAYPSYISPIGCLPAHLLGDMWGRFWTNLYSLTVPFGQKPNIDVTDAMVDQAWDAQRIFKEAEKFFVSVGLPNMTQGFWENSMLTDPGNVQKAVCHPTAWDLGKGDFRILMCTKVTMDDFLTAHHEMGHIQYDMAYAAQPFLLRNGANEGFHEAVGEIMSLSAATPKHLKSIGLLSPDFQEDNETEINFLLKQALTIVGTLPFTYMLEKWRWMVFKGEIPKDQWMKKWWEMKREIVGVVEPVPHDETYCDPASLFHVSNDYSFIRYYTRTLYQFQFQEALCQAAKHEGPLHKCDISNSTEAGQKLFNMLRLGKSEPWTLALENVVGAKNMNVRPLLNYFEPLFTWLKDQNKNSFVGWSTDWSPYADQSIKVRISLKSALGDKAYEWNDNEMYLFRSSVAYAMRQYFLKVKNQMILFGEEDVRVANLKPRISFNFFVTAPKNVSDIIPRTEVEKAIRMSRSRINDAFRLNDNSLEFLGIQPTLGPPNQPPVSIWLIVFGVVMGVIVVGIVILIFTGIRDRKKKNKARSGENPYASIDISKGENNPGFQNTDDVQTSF

Work on `O=c1c(O[C@@H]2O[C@H](CO)[C@@H](O)[C@H](O)[C@H]2O)c(-c2ccc(O)c(O)c2)oc2cc(O)cc(O)c12` [compound 5, Quercetin 3-O-glucoside] yielded an IC50 [1] of 135 ± 6.54 µM.
`COc1cc([C@@H]2c3cc4c(cc3[C@H](O)[C@H]3COC(=O)[C@H]23)OCO4)cc(OC)c1OC` [compound 12, Podophyllotoxin] showed an IC50 [2] of 10.5 ± 0.61 µM.
With `O=c1c(O)c(-c2ccc(O)cc2)oc2cc(O)cc(O)c12` [compound 11, Kaempferol] the IC50 [3] was 0.36 ± 0.02 µM.
